Results published in paper PMC7066280 (Investigational New Drugs, 2019).
Read-outs that look alike come from different tables or passages of the source.

Assays:
[1] = Ivosidenib plasma PK after a single oral dose (day −3, dose escalation), LC-MS/MS, non-compartmental; type: in vivo; conditions: human; for AUC(0-t): read-out: AUC0-72h
Experimental: (§1) In the dose escalation portion, patients with 1) glioma and 2) non-glioma solid tumors were enrolled into sequential cohorts using a standard 3 + 3 design. […] At least 3 patients in each cohort also received a single dose 3 days prior to the start of multiple dosing (i.e., day −3).
(§2) These samples were optional for any further patients enrolled in these cohorts. Further blood samples were collected from all patients up to 10 h postdose on cycle 1, day 15 and cycle 2, day 1. A subset of samples was also used for evaluation of plasma 4β-hydroxycholesterol (4β-OHC) and 4β-OHC:cholesterol ratios. Blood samples for assessment of 2-HG only were also collected at screening.
(§3) Plasma ivosidenib was measured using two validated liquid chromatography-tandem mass spectrometry (LC-MS/MS) methods. The lower limit of quantification (LLOQ) was 1.00 ng/mL (low-range assay) or 50.0 ng/mL (high-range assay). […] Plasma 2-HG concentrations were measured using a qualified LC-MS/MS method with an LLOQ of 30.0 ng/mL. Concentrations of 2-HG in tumor biopsy samples were quantified using qualified LC-MS/MS methods with an LLOQ of 7.5 μg/g for brain tumor homogenate, 100 ng/g for liver tumor homogenate (low-range assay), and 30 μg/g for liver tumor homogenate (high-range assay). Plasma 4β-OHC and cholesterol were measured using a validated LC-MS/MS method. The LLOQ was 5 ng/mL for 4β-OHC and 25 μg/mL for cholesterol in human plasma.
(§4) PK parameters included area under the plasma concentration-time curve (AUC), maximum plasma concentration (Cmax), time to maximum plasma concentration (Tmax), terminal elimination half-life (t1/2), and apparent oral clearance at steady state (CLss/F). Accumulation ratio (Racc), based on Cmax and AUC, was also assessed during the dose escalation portion. PD (2-HG) parameters included baseline-effect value, area under the effect concentration-time curve (AUEC0-10h for the dose escalation portion, or AUEC0-8h for the dose escalation and expansion portions), percent change from baseline in AUEC (%BAUEC0-10h for the escalation portion, or %BAUEC0-8h for the dose escalation and expansion portions), average plasma concentration (Cavg), and percent inhibition for Cavg (%BCavg). For the dose escalation portion, the time-matched ratios of 4β-OHC to cholesterol were calculated.

[2] = Ivosidenib plasma PK after multiple oral doses (dose escalation); type: in vivo, human; conditions: day 15
Experimental: as §1, §2, §3, §4

[3] = po, 100 mg, glioma, single oral 100 mg, day −3, geometric mean (geometric CV%)
[4] = po, 100 mg, non-glioma solid tumors, single oral 100 mg, day −3, geometric mean (geometric CV%)
[5] = po, 300 mg, glioma, single oral 300 mg, day −3, geometric mean (geometric CV%)
[6] = po, 300 mg, non-glioma solid tumors, single oral 300 mg, day −3, geometric mean (geometric CV%)
[7] = po, 400 mg, non-glioma solid tumors, single oral 400 mg, day −3, geometric mean (geometric CV%)
[8] = po, 500 mg, glioma, single oral 500 mg, day −3, geometric mean (geometric CV%)
[9] = po, 500 mg, non-glioma solid tumors, single oral 500 mg, day −3, geometric mean (geometric CV%)
[10] = po, 600 mg, glioma, single oral 600 mg, day −3, geometric mean (geometric CV%)
[11] = po, 800 mg, non-glioma solid tumors, single oral 800 mg, day −3, geometric mean (geometric CV%)
[12] = po, 900 mg, glioma, single oral 900 mg, day −3, geometric mean (geometric CV%)
[13] = po, 1200 mg, non-glioma solid tumors, single oral 1200 mg, day −3, geometric mean (geometric CV%)

**Q.** Which half-life ([1]; oral, 500 mg, single dose of 500 mg, patients with cholangiocarcinoma/chondrosarcoma, read-out: mean t1/2 (converted)) does the source give for `N#Cc1ccnc(N2C(=O)CC[C@H]2C(=O)N(c2cncc(F)c2)[C@H](C(=O)NC2CC(F)(F)C2)c2ccccc2Cl)c1` [ivosidenib] here?
**A.** 64 h

**Q.** What about the half-life ([1]; oral, 500 mg, single dose of 500 mg, patients with glioma, read-out: mean t1/2 (converted)) of the same compound?
**A.** 56 h

**Q.** And the half-life ([1]; oral, after single dose, range of means across doses and tumor types, read-out: terminal half-life (mean))?
**A.** 40 to 102 h

**Q.** And the Tmax ([1]; oral, single dose day −3, range across all tumor types, read-out: median Tmax)?
**A.** 2 to 6 h

**Q.** What about the half-life ([1]; oral, single dose, patients with glioma, range across doses, read-out: mean t1/2 (converted)) of the same compound?
**A.** 40 to 56 h

**Q.** And the half-life ([1]; oral, single dose, patients with non-glioma solid tumors, range across doses, read-out: mean t1/2 (converted))?
**A.** 62 to 102 h

**Q.** What about the Cmax [1, 3] of the same compound?
**A.** 1270 ng/mL

**Q.** And the AUC(0-t) [1, 3]?
**A.** 32800 ng·h/mL

**Q.** What about the half-life ([1]; po, 100 mg, glioma, single oral 100 mg, day −3, geometric mean (geometric CV%), read-out: t1/2 (converted)) of the same compound?
**A.** 55.5 h

**Q.** And the Tmax ([1]; po, 100 mg, glioma, single oral 100 mg, day −3, median (minimum; maximum), read-out: Tmax)?
**A.** 2.03 h

**Q.** What about the Cmax [1, 4] of the same compound?
**A.** 1400 ng/mL

**Q.** What about the AUC(0-t) [1, 4] of the same compound?
**A.** 34800 ng·h/mL

**Q.** And the half-life ([1]; po, 100 mg, non-glioma solid tumors, single oral 100 mg, day −3, geometric mean (geometric CV%), read-out: t1/2 (converted))?
**A.** 102 h

**Q.** And the Tmax ([1]; po, 100 mg, non-glioma solid tumors, single oral 100 mg, day −3, median (minimum; maximum), read-out: Tmax)?
**A.** 3 h

**Q.** And the Cmax [1, 5]?
**A.** 2300 ng/mL

**Q.** What about the AUC(0-t) [1, 5] of the same compound?
**A.** 62500 ng·h/mL

**Q.** And the half-life ([1]; po, 300 mg, glioma, single oral 300 mg, day −3, geometric mean (geometric CV%), read-out: t1/2 (converted))?
**A.** 53.6 h

**Q.** What about the Tmax ([1]; po, 300 mg, glioma, single oral 300 mg, day −3, median (minimum; maximum), read-out: Tmax) of the same compound?
**A.** 4 h

**Q.** What about the Cmax [1, 6] of the same compound?
**A.** 2350 ng/mL

**Q.** What about the AUC(0-t) [1, 6] of the same compound?
**A.** 71600 ng·h/mL

**Q.** What about the half-life ([1]; po, 300 mg, non-glioma solid tumors, single oral 300 mg, day −3, geometric mean (geometric CV%), read-out: t1/2 (converted)) of the same compound?
**A.** 77.9 h

**Q.** What about the Tmax ([1]; po, 300 mg, non-glioma solid tumors, single oral 300 mg, day −3, median (minimum; maximum), read-out: Tmax) of the same compound?
**A.** 4.17 h

**Q.** And the Cmax [1, 7]?
**A.** 4230 ng/mL

**Q.** What about the AUC(0-t) [1, 7] of the same compound?
**A.** 141000 ng·h/mL

**Q.** What about the half-life ([1]; po, 400 mg, non-glioma solid tumors, single oral 400 mg, day −3, geometric mean (geometric CV%), read-out: t1/2 (converted)) of the same compound?
**A.** 77.3 h

**Q.** And the Tmax ([1]; po, 400 mg, non-glioma solid tumors, single oral 400 mg, day −3, median (minimum; maximum), read-out: Tmax)?
**A.** 3 h

**Q.** What about the Cmax [1, 8] of the same compound?
**A.** 2370 ng/mL

**Q.** What about the AUC(0-t) [1, 8] of the same compound?
**A.** 81900 ng·h/mL

**Q.** What about the half-life ([1]; po, 500 mg, glioma, single oral 500 mg, day −3, geometric mean (geometric CV%), read-out: t1/2 (converted)) of the same compound?
**A.** 56.4 h

**Q.** What about the Tmax ([1]; po, 500 mg, glioma, single oral 500 mg, day −3, median (minimum; maximum), read-out: Tmax) of the same compound?
**A.** 3.54 h

**Q.** And the Cmax [1, 9]?
**A.** 3660 ng/mL

**Q.** What about the AUC(0-t) [1, 9] of the same compound?
**A.** 112000 ng·h/mL

**Q.** And the half-life ([1]; po, 500 mg, non-glioma solid tumors, single oral 500 mg, day −3, geometric mean (geometric CV%), read-out: t1/2 (converted))?
**A.** 64.3 h

**Q.** What about the Tmax ([1]; po, 500 mg, non-glioma solid tumors, single oral 500 mg, day −3, median (minimum; maximum), read-out: Tmax) of the same compound?
**A.** 2.92 h

**Q.** What about the Cmax [1, 10] of the same compound?
**A.** 3380 ng/mL

**Q.** And the AUC(0-t) [1, 10]?
**A.** 77700 ng·h/mL

**Q.** What about the half-life ([1]; po, 600 mg, glioma, single oral 600 mg, day −3, geometric mean (geometric CV%), read-out: t1/2 (converted)) of the same compound?
**A.** 39.5 h

**Q.** And the Tmax ([1]; po, 600 mg, glioma, single oral 600 mg, day −3, median (minimum; maximum), read-out: Tmax)?
**A.** 3 h

**Q.** And the Cmax [1, 11]?
**A.** 6190 ng/mL

**Q.** And the AUC(0-t) [1, 11]?
**A.** 179000 ng·h/mL

**Q.** What about the half-life ([1]; po, 800 mg, non-glioma solid tumors, single oral 800 mg, day −3, geometric mean (geometric CV%), read-out: t1/2 (converted)) of the same compound?
**A.** 62.8 h

**Q.** And the Tmax ([1]; po, 800 mg, non-glioma solid tumors, single oral 800 mg, day −3, median (minimum; maximum), read-out: Tmax)?
**A.** 3 h

**Q.** And the Cmax [1, 12]?
**A.** 3440 ng/mL

**Q.** And the AUC(0-t) [1, 12]?
**A.** 98600 ng·h/mL

**Q.** And the half-life ([1]; po, 900 mg, glioma, single oral 900 mg, day −3, geometric mean (geometric CV%), read-out: t1/2 (converted))?
**A.** 54.3 h

**Q.** What about the Tmax ([1]; po, 900 mg, glioma, single oral 900 mg, day −3, median (minimum; maximum), read-out: Tmax) of the same compound?
**A.** 2.55 h

**Q.** What about the Cmax [1, 13] of the same compound?
**A.** 5990 ng/mL

**Q.** And the AUC(0-t) [1, 13]?
**A.** 212000 ng·h/mL

**Q.** What about the half-life ([1]; po, 1200 mg, non-glioma solid tumors, single oral 1200 mg, day −3, geometric mean (geometric CV%), read-out: t1/2 (converted)) of the same compound?
**A.** 61.6 h

**Q.** What about the Tmax ([1]; po, 1200 mg, non-glioma solid tumors, single oral 1200 mg, day −3, median (minimum; maximum), read-out: Tmax) of the same compound?
**A.** 6 h

**Q.** What about the “accumulation at steady state” value [2] of the same compound?
**A.** approximately 1.5 fold
